# Measured values: ChEMBL document CHEMBL1130210, “Steroidal glycoside cholesterol absorption inhibitors” (1997)
# Key:
# Cricetinae gen. sp. [1] = assay: Compound was tested for its ability to inhibit the intestinal absorption of [3H]cholesterol in cholesterol-fed hamsters at 5 mg/kg dose; format: functional, Cricetulus griseus
# Cricetinae gen. sp. [2] = assay: Compound was tested for its ability to inhibit the intestinal absorption of [3H]cholesterol in cholesterol-fed hamsters at 10 mg/kg dose; format: functional, Cricetulus griseus
# Cricetinae gen. sp. [3] = assay: Compound was tested for its ability to inhibit the intestinal absorption of [3H]cholesterol in cholesterol-fed hamsters at 100 mg/kg dose; format: functional, Cricetulus griseus
# Cricetinae gen. sp. [4] = assay: Ability to inhibit the intestinal absorption of [3H]cholesterol in cholesterol-fed hamsters; format: functional
# Cricetinae gen. sp. [5] = assay: Compound was tested for its ability to inhibit the intestinal absorption of [3H]cholesterol in cholesterol-fed hamsters at 200 mg/kg dose; format: functional, Cricetulus griseus
compound,measurement,setting,value
C[C@@H]1CC[C@@]2(OC1)OC1CC3C4CC[C@H]5C[C@@H](O[C@@H]6O[C@@H](CO)[C@@H](O[C@@H]7O[C@@H](COC(=O)Nc8c(Cl)cccc8Cl)[C@@H](OC(=O)Nc8c(Cl)cccc8Cl)[C@H](O)[C@@H]7O)[C@H](O)[C@@H]6O)CC[C@]5(C)C4C(=O)C[C@]3(C)C1[C@@H]2C (stereo partly specified),inhibition in vivo at 5 mg/kg,Cricetinae gen. sp. [1],40%
C[C@@H]1CC[C@@]2(OC1)OC1C[C@H]3[C@@H]4CC[C@H]5C[C@@H](O[C@@H]6O[C@@H](CO)[C@@H](O[C@@H]7O[C@@H](CO)[C@@H](O)[C@H](O)[C@@H]7O)[C@H](O)[C@@H]6O)CC[C@]5(C)[C@H]4C(=O)C[C@]3(C)C1[C@@H]2C (stereo partly specified),inhibition in vivo at 10 mg/kg,Cricetinae gen. sp. [2],23%
C[C@@H]1CC[C@@]2(OC1)OC1CC3C4CC[C@H]5C[C@@H](O[C@@H]6O[C@@H](COC(=O)Nc7ccc(Cl)cc7)[C@@H](O[C@@H]7O[C@@H](CO)[C@@H](O)[C@H](O)[C@@H]7O)[C@H](O)[C@@H]6O)CC[C@]5(C)C4C(=O)C[C@]3(C)C1[C@@H]2C (stereo partly specified),inhibition in vivo at 5 mg/kg,Cricetinae gen. sp. [1],37%
C[C@]12CC[C@@H]3c4ccc(O[C@@H]5O[C@@H](CO)[C@@H](O[C@@H]6O[C@@H](CO)[C@@H](O)[C@H](O)[C@@H]6O)[C@H](O)[C@@H]5O)cc4CC[C@H]3[C@@H]1CCC2=O,inhibition in vivo at 100 mg/kg,Cricetinae gen. sp. [3],14%
CC1CC[C@@]2(OC1)OC1C[C@H]3[C@@H]4CC[C@H]5C[C@@H](OC6OC(C)C(OC7OC(C)C(O)C(O)C7O)C(O)C6O)CC[C@]5(C)[C@H]4C(=O)C[C@]3(C)C1[C@@H]2C (stereo partly specified),ED50,Cricetinae gen. sp. [4],6.5 mg/kg
CC1CC[C@@]2(OC1)OC1C[C@H]3[C@@H]4CC[C@H]5C[C@@H](O[C@@H]6O[C@@H](CO)C(O[C@@H]7O[C@@H](COC(=O)Nc8ccccc8Cl)[C@@H](OC(=O)Nc8ccccc8Cl)[C@H](O)[C@@H]7O)[C@@H](O)[C@@H]6O)CC[C@]5(C)[C@H]4C(=O)C[C@]3(C)C1[C@@H]2C (stereo partly specified),ED50,Cricetinae gen. sp. [4],1 mg/kg
CC1CC[C@@]2(OC1)OC1C[C@H]3[C@@H]4CC[C@H]5C[C@@H](OC6OC(CF)C(OC7OC(CF)C(O)C(O)C7O)C(O)C6O)CC[C@]5(C)[C@H]4C(=O)C[C@]3(C)C1[C@@H]2C (stereo partly specified),ED50,Cricetinae gen. sp. [4],0.7 mg/kg
CCOCOC[C@@H]1O[C@@H](O[C@H]2[C@H](O)[C@H](O)[C@H](O[C@H]3CC[C@]4(C)C5C(=O)C[C@@]6(C)C(CC7O[C@]8(CC[C@@H](C)CO8)[C@@H](C)C76)C5CC[C@H]4C3)O[C@H]2COCOCC)[C@@H](O)[C@@H](O)[C@@H]1O (stereo partly specified),ED50,Cricetinae gen. sp. [4],3 mg/kg
C[C@@H]1CC[C@@]2(OC1)OC1CC3C4CC[C@H]5C[C@@H](O[C@@H]6O[C@@H](CO)[C@@H](O[C@@H]7O[C@@H](COC(=O)NCc8ccccc8)[C@@H](O)[C@H](O)[C@@H]7O)[C@H](O)[C@@H]6O)CC[C@]5(C)C4C(=O)C[C@]3(C)C1[C@@H]2C (stereo partly specified),ED50,Cricetinae gen. sp. [4],5 mg/kg
C[C@@H]1CC[C@@]2(OC1)OC1CC3C4CC[C@H]5C[C@@H](O[C@@H]6O[C@@H](COC(=O)Nc7ccccc7)[C@@H](O[C@@H]7O[C@@H](COC(=O)Nc8ccccc8)[C@@H](O)[C@H](O)[C@@H]7O)[C@H](O)[C@@H]6O)CC[C@]5(C)C4C(=O)C[C@]3(C)C1[C@@H]2C (stereo partly specified),ED50,Cricetinae gen. sp. [4],5 mg/kg
C[C@@]12CCC[C@H]1[C@@H]1CC[C@H]3C[C@@H](O[C@@H]4O[C@@H](CO)[C@@H](O[C@@H]5O[C@@H](CO)[C@@H](O)[C@H](O)[C@@H]5O)[C@H](O)[C@@H]4O)CC[C@]3(C)[C@H]1CC2,inhibition in vivo at 200 mg/kg,Cricetinae gen. sp. [5],37%
